Measurements taken from paper PMC8342789, “Structural insights into a flavin-dependent dehalogenase HadA explain catalysis and substrate inhibition via quadruple π-stacking” (The Journal of Biological Chemistry, 2021).

What was measured:
HadA [1] = target: T1, HadA (Ralstonia pickettii, UniProt Q53008); test: stopped-flow and HPLC of hydroquinone product; assay type: biochemical; conditions: 0.1-6.4 mM 4CP preincubated with enzyme; 25 μM FADH-; 20 mM Hepes pH 7.5; substrate inhibition by dead-end complex
T1 construct: recombinant, E. coli plasmid hadAWT-pET-11a; homotetramer (dimer of dimers); residues 1-517 by domain borders
T1 sequence (Q53008 1-517): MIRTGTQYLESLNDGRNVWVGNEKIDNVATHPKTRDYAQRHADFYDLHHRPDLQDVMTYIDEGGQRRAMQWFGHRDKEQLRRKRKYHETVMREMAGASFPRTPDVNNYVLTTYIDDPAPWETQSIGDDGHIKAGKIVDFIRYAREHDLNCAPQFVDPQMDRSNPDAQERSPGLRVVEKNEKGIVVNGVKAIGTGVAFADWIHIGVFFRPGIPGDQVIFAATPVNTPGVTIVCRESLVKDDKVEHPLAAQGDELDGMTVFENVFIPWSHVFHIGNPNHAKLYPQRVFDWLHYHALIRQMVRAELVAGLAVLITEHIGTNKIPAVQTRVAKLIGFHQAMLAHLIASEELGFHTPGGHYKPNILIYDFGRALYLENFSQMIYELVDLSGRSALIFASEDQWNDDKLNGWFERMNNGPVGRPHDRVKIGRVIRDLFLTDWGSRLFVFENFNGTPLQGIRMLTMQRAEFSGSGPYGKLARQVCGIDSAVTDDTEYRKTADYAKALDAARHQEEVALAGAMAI

HadA [2] = target: T1, HadA; test: X-ray crystal structure, […] Å; assay type: binding
[3] = target: the molecule itself; test: crystal structure; HadA (0.3 mM) mixed with FADH- (12 mM) and 4NP (12 mM) in an anaerobic glove box, incubated 2 h; microbatch at 25 °C, sodium citrate, PEG3350, 5% trifluoroethanol, 0.1 M Bis-Tris propane pH 6.5; data at 100 K; molecular replacement with apo-HadA (PDB 6JHM chain A)

## Oc1ccc(Cl)cc1 [4-chlorophenol]
HadA [1]
  stopped-flow and HPLC of hydroquinone product: increasing the 4CP concentration significantly altered the kinetics of the reaction

## O=[N+]([O-])c1ccc(O)cc1 [4-nitrophenol]
HadA [2]; ternary complex with FADH-, active site of subunit A, second site at C/D dimer interface (two 4NP, quadruple π-stacking)
  X-ray crystal structure, 2.3 Å: only one 4NP molecule could be clearly seen in the expected pocket of subunit A

## Cc1cc2c(cc1C)N(C[C@H](O)[C@H](O)[C@H](O)COP(=O)(O)OP(=O)(O)OC[C@H]1O[C@@H](n3cnc4c(N)ncnc43)[C@H](O)[C@@H]1O)c1[nH]c(=O)[nH]c(=O)c1N2 [FADH^–]
HadA [2]; ternary complex with 4NP
  X-ray crystal structure, 2.3 Å: strong electron densities could be observed for all four FADH^– molecules

B1: wild-type HadA, flavin-dependent monooxygenase/dehalogenase component from Ralstonia pickettii (enzyme, UniProt Q53008 1-517, looked up)
chain: MIRTGTQYLESLNDGRNVWVGNEKIDNVATHPKTRDYAQRHADFYDLHHRPDLQDVMTYIDEGGQRRAMQWFGHRDKEQLRRKRKYHETVMREMAGASFPRTPDVNNYVLTTYIDDPAPWETQSIGDDGHIKAGKIVDFIRYAREHDLNCAPQFVDPQMDRSNPDAQERSPGLRVVEKNEKGIVVNGVKAIGTGVAFADWIHIGVFFRPGIPGDQVIFAATPVNTPGVTIVCRESLVKDDKVEHPLAAQGDELDGMTVFENVFIPWSHVFHIGNPNHAKLYPQRVFDWLHYHALIRQMVRAELVAGLAVLITEHIGTNKIPAVQTRVAKLIGFHQAMLAHLIASEELGFHTPGGHYKPNILIYDFGRALYLENFSQMIYELVDLSGRSALIFASEDQWNDDKLNGWFERMNNGPVGRPHDRVKIGRVIRDLFLTDWGSRLFVFENFNGTPLQGIRMLTMQRAEFSGSGPYGKLARQVCGIDSAVTDDTEYRKTADYAKALDAARHQEEVALAGAMAI
notes: HadA monooxygenase of the had pathway, Ralstonia pickettii; each protomer is described as N-terminal domain (residues 1-146), beta-sheet domain (147-275) and C-terminal domain (276-517); also called HadAWT; HadA monooxygenase; source: plasmid hadAWT-pET-11a
[3]
  stoichiometry N: 4

B2: HadA Phe441Val variant (enzyme)
chain: MIRTGTQYLESLNDGRNVWVGNEKIDNVATHPKTRDYAQRHADFYDLHHRPDLQDVMTYIDEGGQRRAMQWFGHRDKEQLRRKRKYHETVMREMAGASFPRTPDVNNYVLTTYIDDPAPWETQSIGDDGHIKAGKIVDFIRYAREHDLNCAPQFVDPQMDRSNPDAQERSPGLRVVEKNEKGIVVNGVKAIGTGVAFADWIHIGVFFRPGIPGDQVIFAATPVNTPGVTIVCRESLVKDDKVEHPLAAQGDELDGMTVFENVFIPWSHVFHIGNPNHAKLYPQRVFDWLHYHALIRQMVRAELVAGLAVLITEHIGTNKIPAVQTRVAKLIGFHQAMLAHLIASEELGFHTPGGHYKPNILIYDFGRALYLENFSQMIYELVDLSGRSALIFASEDQWNDDKLNGWFERMNNGPVGRPHDRVKIGRVIRDLFLTDWGSRLVVFENFNGTPLQGIRMLTMQRAEFSGSGPYGKLARQVCGIDSAVTDDTEYRKTADYAKALDAARHQEEVALAGAMAI
notes: HadA monooxygenase, Ralstonia pickettii, with Phe441Val; same limits as the wild type (domains described over residues 1-517); source: site-directed mutagenesis of hadAWT-pET-11a
[3]
  binding result: binds
